Assays:
GPR55 [1] = biological target: T1, GPR55 (Homo sapiens, UniProt Q9Y2T6); assay: inhibition of uptake of the fluorescent GPR55 agonist T1117 in hGPR55-HEK293 cells (live-cell imaging); assay type: cell-based
T1 construct: 3 × HA-tagged human GPR55 stably expressed in HEK293 cells

GPR55 [2] = biological target: T1, GPR55; assay: inhibition of uptake of the fluorescent GPR55 agonist T1117 in hGPR55-HEK293 cells; positive control; assay type: cell-based

T1 sequence (Q9Y2T6 whole entry): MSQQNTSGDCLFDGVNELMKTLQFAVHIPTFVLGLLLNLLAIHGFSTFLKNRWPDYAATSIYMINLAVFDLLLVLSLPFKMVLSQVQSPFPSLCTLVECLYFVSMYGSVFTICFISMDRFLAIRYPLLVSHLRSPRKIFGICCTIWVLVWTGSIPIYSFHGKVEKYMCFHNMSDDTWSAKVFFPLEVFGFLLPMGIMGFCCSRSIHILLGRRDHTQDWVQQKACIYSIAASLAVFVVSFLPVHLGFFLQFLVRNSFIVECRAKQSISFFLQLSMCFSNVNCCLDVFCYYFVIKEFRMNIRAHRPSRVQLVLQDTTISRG

| Compound | IC50 (GPR55 [1]) | % reduction in T1117 incorporation (GPR55 [2]) |
| --- | --- | --- |
| COc1ccc(C[C@H](C)NC[C@H](O)c2cc(O)cc(O)c2)c2ccccc12 [(R,S′)-MNF, (R,S′)-4′-methoxy-1-naphthylfenoterol] | 1.3 µM | – |
| COc1ccc(C[C@@H](C)NC[C@H](O)c2cc(O)cc(O)c2)c2ccccc12 [(R,R′)-MNF] | – | ~ 70 % reduction in T1117 incorporation |

Source: article PMC8901637, “Deprogramming metabolism in pancreatic cancer with a bi-functional GPR55 inhibitor and biased β2 adrenergic agonist” (Scientific Reports, 2022)
